Results from patent publication US20240025912A1 (Merck Sharp & Dohme LLC, priority 2022, published 2024).

Target: GST-RIPK1 (recombinant GST-RIPK1 kinase domain (residues 1-327)) (Homo sapiens (Human), UniProt Q13546)
Test: RIPK1-ADP-Glo Enzymatic Assay
Assay type: biochemical
Settings: 25 nM GST-RIPK1, 300 μM ATP, 3 μM dephosphorylated-MBP, 30 min pre-incubation, 150 min reaction
Procedure, shortened: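 GST-RIPK1 kinase domain (1-327, Sf21-expressed), 25 nM final, pre-incubated 30 min with compound (1% DMSO), then reacted 150 min with 300 μM ATP and 3 μM dephosphorylated MBP in HEPES pH 7.3/MgCl2 buffer. ADP measured by ADP-Glo luminescence; EC50 from 10-point 1:3 titrations (top 100000 nM), four-parameter fit.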

Sequence of GST-RIPK1 (recombinant GST-RIPK1 kinase domain (residues 1-327)) (Q13546 1-327): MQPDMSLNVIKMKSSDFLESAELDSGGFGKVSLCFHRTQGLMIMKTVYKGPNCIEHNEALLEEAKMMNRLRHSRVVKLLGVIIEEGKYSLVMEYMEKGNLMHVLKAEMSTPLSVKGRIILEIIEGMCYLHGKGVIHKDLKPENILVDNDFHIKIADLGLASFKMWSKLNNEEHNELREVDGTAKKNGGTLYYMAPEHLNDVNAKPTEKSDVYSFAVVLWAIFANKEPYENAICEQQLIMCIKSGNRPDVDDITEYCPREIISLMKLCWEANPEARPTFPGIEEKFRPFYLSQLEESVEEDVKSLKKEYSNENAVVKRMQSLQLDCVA

Row | EC50 [nM] | Compound
1 | 45 | N#CC12CC(n3nc4n(c3=O)[C@H](c3ccccc3)CC4)(C1)C2(F)F [Compound 3-3, 2,2-difluoro-3-[(5S)-3-oxo-5-phenyl-6,7-dihydro-3H-pyrrolo[2,1-c][1,2,4]triazol-2(5H)-yl]bicyclo[1.1.1]pentane-1-carbonitrile]
2 | 49.5 | Cc1ccc([C@@H]2CCc3nn(C45CC(C#N)(C4)C5)c(=O)n32)cc1 [Compound 4-7, (S)-3-(3-oxo-5-(p-tolyl)-6,7-dihydro-3H-pyrrolo[2,1-c][1,2,4]triazol-2(5H)-yl)bicyclo[1.1.1]pentane-1-carbonitrile]
3 | 165 | N#CC12CC(n3nc4n(c3=O)[C@H](c3cnccn3)CC4)(C1)C2 [Compound 4-8, (S)-3-(3-oxo-5-(pyrazin-2-yl)-6,7-dihydro-3H-pyrrolo[2,1-c][1,2,4]triazol-2(5H)-yl)bicyclo[1.1.1]pentane-1-carbonitrile]
4 | 17 | Cc1cc(F)cc([C@@H]2CCc3nn(C45CC(F)(C4)C5)c(=O)n32)c1 [Compound 4-9, (S)-5-(3-fluoro-5-methylphenyl)-2-(3-fluorobicyclo[1.1.1]pentan-1-yl)-2,5,6,7-tetrahydro-3H-pyrrolo[2,1-c][1,2,4]triazol-3-one]
5 | 62.9 | O=c1n(C23CC(F)(C2)C3)nc2n1[C@H](c1ccc(C(F)F)cc1)CC2 [Compound 4-10, (S)-5-(4-(difluoromethyl)phenyl)-2-(3-fluorobicyclo[1.1.1]pentan-1-yl)-2,5,6,7-tetrahydro-3H-pyrrolo[2,1-c][1,2,4]triazol-3-one]
6 | 108 | O=c1n(C23CC(F)(C2)C3)nc2n1[C@H](c1ccc(C3CC3)cc1)CC2 [Compound 4-11, (S)-5-(4-cyclopropylphenyl)-2-(3-fluorobicyclo[1.1.1]pentan-1-yl)-2,5,6,7-tetrahydro-3H-pyrrolo[2,1-c][1,2,4]triazol-3-one]
7 | 84 | O=c1n(C23CC(F)(C2)C3)nc2n1[C@H](c1cnccn1)CC2 [Compound 4-12, (S)-2-(3-fluorobicyclo[1.1.1]pentan-1-yl)-5-(pyrazin-2-yl)-2,5,6,7-tetrahydro-3H-pyrrolo[2,1-c][1,2,4]triazol-3-one]
8 | 79.8 | Cc1cncc([C@@H]2CCc3nn(C45CC(F)(C4)C5)c(=O)n32)n1 [Compound 4-13, (S)-2-(3-fluorobicyclo[1.1.1]pentan-1-yl)-5-(6-methylpyrazin-2-yl)-2,5,6,7-tetrahydro-3H-pyrrolo[2,1-c][1,2,4]triazol-3-one]
9 | 198 | Cc1cnc([C@@H]2CCc3nn(C45CC(F)(C4)C5)c(=O)n32)cn1 [Compound 4-14, (S)-2-(3-fluorobicyclo[1.1.1]pentan-1-yl)-5-(5-methylpyrazin-2-yl)-2,5,6,7-tetrahydro-3H-pyrrolo[2,1-c][1,2,4]triazol-3-one]
10 | 341 | Cc1ccccc1[C@@H]1CCc2nn(C34CC(F)(C3)C4)c(=O)n21 [Compound 4-15, (S)-2-(3-fluorobicyclo[1.1.1]pentan-1-yl)-5-(o-tolyl)-2,5,6,7-tetrahydro-3H-pyrrolo[2,1-c][1,2,4]triazol-3-one]
11 | 496 | O=c1n(C23CC(F)(C2)C3)nc2n1[C@H](c1cnc(C(F)(F)F)cn1)CC2 [Compound 4-16, (S)-2-(3-fluorobicyclo[1.1.1]pentan-1-yl)-5-(5-(trifluoromethyl)pyrazin-2-yl)-2,5,6,7-tetrahydro-3H-pyrrolo[2,1-c][1,2,4]triazol-3-one]
12 | 38.8 | O=c1n(C23CC(F)(C2)C3)nc2n1[C@H](c1cnccn1)C[C@@H]2F [Compound 4-17, (5S,7S)-7-fluoro-2-(3-fluorobicyclo[1.1.1]pentan-1-yl)-5-(pyrazin-2-yl)-2,5,6,7-tetrahydro-3H-pyrrolo[2,1-c][1,2,4]triazol-3-one]
13 | 78.3 | O=c1n(C23CC(F)(C2)C3)nc2n1[C@H](c1cc(F)cc(F)c1)C[C@H]2O [Compound 5-1, (5S,7R)-5-(3,5-difluorophenyl)-2-(3-fluorobicyclo[1.1.1]pentan-1-yl)-7-hydroxy-2,5,6,7-tetrahydro-3H-pyrrolo[2,1-c][1,2,4]triazol-3-one]
14 | 25.7 | O=c1n(C23CC(F)(C2)C3)nc2n1[C@H](c1cc(F)cc(F)c1)C[C@@H]2O [Compound 5-2, (5S,7S)-5-(3,5-difluorophenyl)-2-(3-fluorobicyclo[1.1.1]pentan-1-yl)-7-hydroxy-2,5,6,7-tetrahydro-3H-pyrrolo[2,1-c][1,2,4]triazol-3-one]
15 | 90.2 | N#CC12CC(n3nc4n(c3=O)[C@H](c3ccc(C(F)F)cc3)CC4)(C1)C2 [Compound 7-1, (S)-3-(5-(4-(difluoromethyl)phenyl)-3-oxo-6,7-dihydro-3H-pyrrolo[2,1-c][1,2,4]triazol-2(5H)-yl)bicyclo[1.1.1]pentane-1-carbonitrile]
